# Measurements published in patent US9815862B2, “Polymorphs of LNnT” (Glycom A/S, priority 2012, dated 2017).
# What was measured:
# [1] = Redissolution of the precipitate formed from aqueous LNnT solution; type: physicochemical; conditions: white precipitate from aqueous solution stored at 2-8° C. or room temperature
# Protocol: Amorphous spray-dried LNnT (6.0087 g, water content: 2.67%, purity: 99.2% by HPAEC) was dissolved in HPLC water (10.66 ml). Dissolution was reached by shaking. Two samples of 1 ml solution were stored at 2-8° C. (sample 1) and room temperature (sample 2), respectively, for 4 weeks. […] The precipitation was collected by filtration and dried at atmospheric pressure.
# [2] = Storage of crystalline polymorph in an open vessel, checked by XRPD; type: physicochemical; conditions: stored in an open vessel at ambient temperature and humidity for a week
# Protocol: XRPD investigation of the collected crystals was conducted with a Philips PW 1830/PW 1050 instrument in transmission geometry, using CuKα radiation made monochromatic by means of a graphite monochromator. D-spacings were calculated from the 2Θ values, based on a wavelength of 1.54186 Å. As a general rule the 2Θ values have an error rate of […].
SMILES,redissolution of the precipitated crystals [1],change in XRPD pattern on storage (solid-state stability) [2]
"CC(=O)N[C@H]1[C@H](O[C@H]2[C@@H](O)[C@@H](CO)O[C@@H](O[C@H]3[C@H](O)[C@@H](O)C(O)O[C@@H]3CO)[C@@H]2O)O[C@H](CO)[C@@H](O[C@@H]2O[C@H](CO)[C@H](O)[C@H](O)[C@H]2O)[C@@H]1O (mixture of isomers) [LNnT polymorph IV, lacto-N-neotetraose]",can be redissolved only when ultrasonicated for 3 hours at 50 °C,
"CC(=O)N[C@H]1[C@H](O[C@H]2[C@@H](O)[C@@H](CO)O[C@@H](O[C@H]3[C@H](O)[C@@H](O)C(O)O[C@@H]3CO)[C@@H]2O)O[C@H](CO)[C@@H](O[C@@H]2O[C@H](CO)[C@H](O)[C@H](O)[C@H]2O)[C@@H]1O (mixture of isomers) [LNnT polymorph V, lacto-N-neotetraose]",,no substantial change in its XRPD pattern can be observed
